Assay results reported in PubChem BioAssay AID330 (DTP/NCI, 2004).
Values joined by “and” are separate entries in the source; they are usually repeats but may differ in a detail not shown here. Identical values can stand only once. Inconclusive results and toxic doses are left out. Rule for the calls: active = survival T/C of 150% or more; inactive = T/C below 125% in these data.

Tested on: P388 leukemia ip, CD2F1 mice, survival T/C
Test: NCI In Vivo Anticancer Drug Screen. Data for tumor model P388 Leukemia (intraperitoneal) in CD2F1 (CDF1) mice
Settings: endpoint: median survival time, higher = longer survival
In short: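 Mice carrying the transplanted tumor received test compound or vehicle. Survival was recorded in each group, and the value is the treated-group measurement divided by that of the vehicle-treated control group.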

[1] = dose: 100.0 mg/kg/injection, schedule: Q01DX001 (ip), vehicle: Klucel (hydroxypropylcellulose) (HPC)
[2] = dose: 200.0 mg/kg/injection, schedule: Q01DX001 (ip), vehicle: Klucel (hydroxypropylcellulose) (HPC)
[3] = dose: 400.0 mg/kg/injection, schedule: Q01DX001 (ip), vehicle: Klucel (hydroxypropylcellulose) (HPC)
[4] = dose: 50.0 mg/kg/injection, schedule: Q01DX009 (ip), vehicle: saline
[5] = dose: 100.0 mg/kg/injection, schedule: Q01DX009 (ip), vehicle: saline
[6] = dose: 200.0 mg/kg/injection, schedule: Q01DX009 (ip), vehicle: saline
[7] = dose: 50.0 mg/kg/injection, schedule: Q01DX005 (ip), vehicle: Klucel (hydroxypropylcellulose) (HPC)
[8] = dose: 100.0 mg/kg/injection, schedule: Q01DX005 (ip), vehicle: Klucel (hydroxypropylcellulose) (HPC)
[9] = dose: 200.0 mg/kg/injection, schedule: Q01DX005 (ip), vehicle: Klucel (hydroxypropylcellulose) (HPC)
[10] = dose: 25.0 mg/kg/injection, schedule: Q01DX009 (ip), vehicle: saline with Tween-80
[11] = dose: 50.0 mg/kg/injection, schedule: Q01DX009 (ip), vehicle: saline with Tween-80
[12] = dose: 100.0 mg/kg/injection, schedule: Q01DX009 (ip), vehicle: saline with Tween-80
[13] = dose: 200.0 mg/kg/injection, schedule: Q01DX009 (ip), vehicle: saline with Tween-80
[14] = dose: 60.0 mg/kg/injection, schedule: Q01DX005 (ip), vehicle: saline with Tween-80
[15] = dose: 120.0 mg/kg/injection, schedule: Q01DX005 (ip), vehicle: saline with Tween-80
[16] = dose: 240.0 mg/kg/injection, schedule: Q01DX005 (ip), vehicle: saline with Tween-80
[17] = dose: 50.0 mg/kg/injection, schedule: Q01DX005 (ip), vehicle: saline with Tween-80
[18] = dose: 100.0 mg/kg/injection, schedule: Q01DX005 (ip), vehicle: saline with Tween-80
[19] = dose: 200.0 mg/kg/injection, schedule: Q01DX005 (ip), vehicle: saline with Tween-80
[20] = dose: 25.0 mg/kg/injection, schedule: Q01DX005 (ip), vehicle: Klucel (hydroxypropylcellulose) (HPC)

Measured: T/C

COc1nc(/C=C/c2ccccc2)c([N+](=O)[O-])c(OC)n1
inactive: dose: 100.0 mg/kg/injection, schedule: Q04DX003 (ip), vehicle: saline 103 % of control | dose: 200.0 mg/kg/injection, schedule: Q04DX003 (ip), vehicle: saline 103 % of control | dose: 400.0 mg/kg/injection, schedule: Q04DX003 (ip), vehicle: saline 100 % of control

FC(F)(F)c1nn2c(-c3cnns3)nnc2s1
inactive: [1] 98 % of control | [2] 99 % of control | [3] 104 % of control

Nc1ccc(C(=O)Nc2ccc(C(=O)Nc3ccc(/C=C/c4ccc(NC(=O)c5ccc(N)cc5)cc4S(=O)(=O)O)c(S(=O)(=O)O)c3)cc2)cc1
inactive: [4] 99 % of control | [5] 113 % of control | [6] 100 % of control

CC(C)C(NC(=O)OCC1c2ccccc2-c2ccccc21)C(=O)O (stereo not drawn)
inactive: [7] 104 % of control | [8] 99 % of control | [9] 98 % of control

CCCOC(=O)c1nc(N(CC2CCCCC2)C(=O)NC)sc1/N=C/c1ccccc1
inactive: [10] 98 % of control | [11] 94 % of control | [12] 87 % of control

C(=Nc1ccccc1)C1CCCC[N-]1.C(=Nc1ccccc1)C1CCCC[N-]1.[Cu+2].[O-][Cl+3]([O-])([O-])O (stereo not drawn)
inactive: dose: 4.5 mg/kg/injection, schedule: Q01DX009 (ip), vehicle: saline with Tween-80 90 % of control | dose: 9.0 mg/kg/injection, schedule: Q01DX009 (ip), vehicle: saline with Tween-80 97 % of control | dose: 18.0 mg/kg/injection, schedule: Q01DX009 (ip), vehicle: saline with Tween-80 97 % of control | dose: 18.75 mg/kg/injection, schedule: Q01DX009 (ip), vehicle: saline with Tween-80 97 % of control | [11] 96 % of control

CCOC(=O)/C(C#N)=C/P(=O)(OCC)OCC
inactive: dose: 3.12 mg/kg/injection, schedule: Q04DX003 (ip), vehicle: Klucel (hydroxypropylcellulose) (HPC) 101 % of control | dose: 6.25 mg/kg/injection, schedule: Q04DX003 (ip), vehicle: Klucel (hydroxypropylcellulose) (HPC) 100 % of control | dose: 12.5 mg/kg/injection, schedule: Q04DX003 (ip), vehicle: Klucel (hydroxypropylcellulose) (HPC) 99 % of control

O=[N+]([O-])c1ccc(O)cc1C=NCCSc1ccc(Cl)cc1
inactive: [11] 100 % of control | [12] 100 % of control | [13] 103 % of control

Nc1ccc([N+](=O)[O-])cc1
inactive: dose: 12.5 mg/kg/injection, schedule: Q01DX009 (ip), vehicle: distilled water + Tween-80 102 % of control | dose: 25.0 mg/kg/injection, schedule: Q01DX009 (ip), vehicle: distilled water + Tween-80 100 % of control | dose: 50.0 mg/kg/injection, schedule: Q01DX009 (ip), vehicle: distilled water + Tween-80 103 % of control | dose: 100.0 mg/kg/injection, schedule: Q01DX009 (ip), vehicle: distilled water + Tween-80 103 % of control | dose: 200.0 mg/kg/injection, schedule: Q01DX009 (ip), vehicle: distilled water + Tween-80 102 % of control

NC(=S)c1ccc(N=Cc2ccco2)cc1
inactive: [1] 102 % of control | [2] 104 % of control | [3] 105 % of control

Cc1cc[n+](CCc2c[nH]c3ccccc23)cc1C
inactive: dose: 12.5 mg/kg/injection, schedule: Q01DX005 (ip), vehicle: saline 100 % of control | dose: 25.0 mg/kg/injection, schedule: Q01DX005 (ip), vehicle: saline 97 % of control | dose: 50.0 mg/kg/injection, schedule: Q01DX005 (ip), vehicle: saline 105 % of control and 95 % of control

CC1(C)OCC(C2OC3OC(C)(C)OC3C2N2CCC(O)O2)O1 (stereo not drawn)
inactive: dose: 97.75 mg/kg/injection, schedule: Q04DX002 (ip), vehicle: saline 103 % of control | dose: 195.5 mg/kg/injection, schedule: Q04DX002 (ip), vehicle: saline 109 % of control | dose: 391.0 mg/kg/injection, schedule: Q04DX002 (ip), vehicle: saline 105 % of control

Cc1cc(N)ccc1Cl
inactive: [10] 97 % of control | [11] 110 % of control | [12] 93 % of control | [13] 96 % of control

Nc1ccc2c(c1)Oc1ccc(N)cc1O2
inactive: [14] 102 % of control | [15] 100 % of control | [16] 106 % of control

O=c1[nH]c(=O)n(O)c2nc[nH]c12
inactive: dose: 12.5 mg/kg/injection, schedule: Q01DX009 (ip), vehicle: saline with Tween-80 90 % of control | [10] 100 % of control | [11] 90 % of control

COc1ccc2ncc(C)c(CO)c2c1
inactive: [17] 116 % of control | [18] 102 % of control | [19] 98 % of control

Cc1ccc(N2C(=O)CCSC2=S)cc1Br
inactive: dose: 50.0 mg/kg/injection, schedule: Q01DX009 (ip), vehicle: suspension in saline 103 % of control | dose: 100.0 mg/kg/injection, schedule: Q01DX009 (ip), vehicle: suspension in saline 107 % of control | dose: 200.0 mg/kg/injection, schedule: Q01DX009 (ip), vehicle: suspension in saline 107 % of control

Cn1cnc([N+](=O)[O-])c1Sc1nc(N)nc2nc[nH]c12
inactive: [10] 109 % of control | dose: 50.0 mg/kg/injection, schedule: Q01DX009 (ip), vehicle: saline sonified 109 % of control | dose: 100.0 mg/kg/injection, schedule: Q04DX003 (ip), vehicle: Klucel (hydroxypropylcellulose) (HPC) 122 % of control

C/C(N)=C(\C#N)C(=O)c1ccccc1
inactive: [7] 100 % of control | [8] 103 % of control | [9] 111 % of control

COc1ccc2c(c1)CC1c3c(cc4c(c3-2)OCO4)CCN1C (stereo not drawn)
inactive: dose: 30.0 mg/kg/injection, schedule: Q01DX005 (ip), vehicle: Klucel (hydroxypropylcellulose) (HPC) 93 % of control | dose: 60.0 mg/kg/injection, schedule: Q01DX005 (ip), vehicle: Klucel (hydroxypropylcellulose) (HPC) 90 % of control | dose: 120.0 mg/kg/injection, schedule: Q01DX005 (ip), vehicle: Klucel (hydroxypropylcellulose) (HPC) 90 % of control

CCOC(=O)C(C#N)C1(c2ccccc2)CCCCC1 (stereo not drawn)
inactive: [11] 112 % of control | [12] 101 % of control | [13] 101 % of control

COc1ccc2c(c1C)CN1CCc3cc4c(cc3C1=C2)OCO4
inactive: [14] 99 % of control | [15] 117 % of control | [16] 100 % of control

COc1cc(/C(C)=C\CP(=O)(c2ccccc2)c2ccccc2)c(C(=O)O)cc1C
inactive: [17] 106 % of control | [18] 106 % of control | [19] 103 % of control

COc1c(/C=C/C=O)cc2c(c1OC)OCO2
inactive: [20] 97 % of control | [7] 97 % of control | [8] 104 % of control | [9] 100 % of control

CC(C)=CCC(OC(=O)CC(C)C)C1=CC(=O)c2c(O)ccc(O)c2C1=O (stereo not drawn)
inactive: dose: 6.25 mg/kg/injection, schedule: Q01DX005 (ip), vehicle: saline with Tween-80 94 % of control | dose: 12.5 mg/kg/injection, schedule: Q01DX005 (ip), vehicle: saline with Tween-80 103 % of control | dose: 25.0 mg/kg/injection, schedule: Q01DX005 (ip), vehicle: saline with Tween-80 99 % of control

CCOc1c(N=Nc2ccccc2C)c(C)nn1C(N)=S
inactive: dose: 60.0 mg/kg/injection, schedule: Q01DX005 (ip), vehicle: Klucel + Tween-80 100 % of control | dose: 120.0 mg/kg/injection, schedule: Q01DX005 (ip), vehicle: Klucel + Tween-80 97 % of control | dose: 240.0 mg/kg/injection, schedule: Q01DX005 (ip), vehicle: Klucel + Tween-80 100 % of control

[N-]=[N+]=Nc1nn2cnnc2c2[nH]c3ccccc3c12
inactive: dose: 12.5 mg/kg/injection, schedule: Q01DX005 (ip), vehicle: Klucel (hydroxypropylcellulose) (HPC) 104 % of control | [20] 108 % of control | [7] 100 % of control and 101 % of control | [8] 96 % of control | [9] 99 % of control

C=CC1CN2CCC1CC2C(=O)c1ccnc2ccc(OC)cc12 (stereo not drawn)
inactive: [17] 100 % of control | [18] 100 % of control | [19] 100 % of control

CCCCC(NC(=O)CCl)C(=O)O (stereo not drawn)
inactive: [4] 98 % of control | [5] 95 % of control | [6] 98 % of control

COc1c(C)cc(C)c(CBr)c1-c1c(CBr)c(C)cc(C)c1OC
inactive: [1] 95 % of control | [2] 93 % of control | [3] 88 % of control
